Values joined by “and” are separate entries in the source; they are usually repeats but may differ in a detail not shown here. Equal values may be shown once. Values belong to the molecule of their own block, whether it stands above or below them.
Experiments:
microsomal CYP enzymes = assay: HLM incubation of MPZ with CYP inhibitors; conditions: HLM 0.5 mg/ml, 60 min; for effect of inhibitor on MPZS formation from MPZ / effect of inhibitor on MPZH formation from MPZ (peak area ratio, qualitative): 1 mM ABT; for effect of inhibitor on MPZS formation from MPZ: itraconazole 2.5 µM; for effect of inhibitor on MPZH formation from MPZ (peak area ratio, qualitative): quinidine 1 µM
Method: Initially, two sets of incubations were conducted with HLM (0.5 mg/ml microsomal protein), 1 and 10 μM MPZ, 100 mM KPi buffer (pH 7.4) where one set was in the presence and the other set was in the absence of 1 mM ABT, a non‐specific CYP inhibitor for 60 min. This allowed the assessment of total CYP contribution for MPZ metabolism. Then, CYP‐specific chemical inhibitors were used to assess the contribution of individual major CYP‐isoforms where HLM were incubated with 1 or 10 μM MPZ in the presence and in the absence of each CYP specific inhibitor at 37°C for 60 min. […] Parallel incubation with seven CYP specific probe substrates (phenacetin for CYP1A2, bupropion for CYP2B6, paclitaxel for CYP2C8, diclofenac for CYP2C9, S‐mephenytoin for CYP2C19, dextromethorphan for CYP2D6 and midazolam for CYP3A4/5) were included in as positive controls. For negative control reaction, MPZ was incubated at 37°C in duplicate in a reaction mixture devoid of NADPH. All other procedures were the same as described previously.
LC separation conditions were developed for MPZ and its metabolites (MPZA and MPZS), 7‐hydroxycoumarin, each metabolite of CYP probe substrate, benzydamine N‐oxide, and phthalazine. The LC–MS/MS system consisted of a Shimadzu Nexera X2 LC‐30 UPLC system (Shimadzu Corporation), and an API 4000 triple quadrupole mass spectrometer (SCIEX) was used for analysis. All analytes were analyzed using electrospray ionization (ESI) in positive ion mode except for 7‐EC, which used negative ion mode. The LC–MS/MS system was controlled by Analyst software (version 1.6.1, SCIEX).
For each analytical method, a calibration curve was generated for the quantification of MPZ and its two metabolites (MPZA and MPZS). […] PAR was also used for all positive control compounds.

[1] = system: human liver microsomal amidase; assay: Incubations with heat-treated HLM for microsomal hydrolase/amidase activity, with and without BNPP; type: in vitro ADME; conditions: 10 µM MPZ, HLM, 60 min
Method: Prior to the reaction for amidase activity, the reaction mixture containing KPi buffer (pH 7.4, 8.4, or 9.4) and HLM was pre‐incubated at 50°C for 5 min to inactivate CYP and FMO activities in HLM. The mixture was placed on ice to cool down. An aliquot was taken out which was considered as t = 0 min incubation. Then 10 µM MPZ was added into the remaining mixture and incubated at 37°C on an orbital shaker for 60 min. A parallel set of incubations was conducted with 10 µM MPZ in the presence at 2 and 16 µM, of BNPP (a known inhibitor of amidase). All reactions were in triplicate. The total percentage of organic solvent in the incubation mixture was ≤0.1%. The reactions were terminated by the addition of chilled acetonitrile: methanol, 90:10, (v/v). The samples were vortex‐mixed and stored at ≤−70°C and were subjected analyzed by LC–MS/MS.

microsomal FMOs = assay: Incubation of MPZ with HLM for FMO, with and without methimazole; type: in vitro ADME, human; conditions: 1 mM methimazole, pH 8.4, NADPH, 60 min
Method: MPZ, at 1.0 and 10.0 µM, was incubated with HLM or HKM to determine the contribution of microsomal FMOs on the metabolism of MPZ.
A reaction mixture containing KPi buffer (pH 8.4), HLM or HKM (0.5 mg/ml protein) and MPZ (1.0 and 10.0 µM) was pre‐incubated for 3–5 min at 37°C. The reaction was initiated by the addition of NADPH into the reaction mixture. The reaction was conducted for 0 and 60 min. A positive control (benzydamine, 100 µM) was incubated in duplicate for 0 and 20 min. Parallel incubation was conducted by adding 1 mM methimazole, a non‐specific FMO inhibitor, under identical conditions. Heat‐inactivated microsomes (50°C for at least 5 min) was incubated under identical conditions negative control. All other procedures were the same as described previously.

[2] = Clinical study NG100-101: plasma pharmacokinetics of metopimazine and metabolites after a single oral 60 mg dose; type: in vivo, healthy adult subjects (human); conditions: for % Drug‐related material MPZS: based on AUClast
Method: The clinical study was conducted at Biotrial Rennes, in accordance with the Declaration of Helsinki. The study (NG100‐101) was a double‐blind, placebo‐ controlled, ascending single‐ and multiple‐dose study of the safety, tolerability, and pharmacokinetics of metopimazine administered orally to healthy adult subjects. The study protocol, informed consent form, and appropriate related documents were approved by the institutional review board, and all subjects provided written informed consent prior to participation in the study. […] In the morning, after at least 10 h of fasting overnight, eight healthy adult subjects (male or female aged 18 to 45), were orally administered metopimazine (or a matching placebo). […] Blood samples were collected at the following time points: predose and 0.25, 0.5, 0.75, 1, 1.25, 1.5, 2, 3, 4, 6, 8, 12, 18, and 24 h postdose; plasma samples were obtained by centrifugation of the blood samples. A comprehensive safety and pharmacokinetic analysis was performed for each cohort for the SAD and MAD parts of the study and will be presented elsewhere. A fit‐for‐purpose discovery method was used to analyze 4 subjects from the highest single dosed cohort for the presence of metabolites. Plasma concentrations of metopimazine, metopimazine acid and metopimazine sulfoxide were quantified using LC–MS/MS methods. Venous blood samples (6 ml) for the determination of plasma concentrations of MPZ and metabolites (MPZA and MPZS) were drawn by direct venipuncture or via an intravenous catheter into K2EDTA Vacutainer® tubes. It was important to avoid hemolysis during blood collection. After collection, the blood samples were centrifuged within 60 min, at 3000 rotations per minute for 10 min at 5°C. The resulting plasma was separated into 2 equal aliquots of 1000 µl (aliquots A & B) and transferred to polypropylene tubes, which were labeled, frozen within 120 min of blood collection and stored at –70°C until required for bioanalysis. Immediately prior to bioanalysis, samples were thawed and a 200 µl aliquots were removed and analytes extracted using acetonitrile protein precipitation. The extracted samples were analyzed twice, once for quantification of MPZ and MPZA and again for MPZS quantification as described below. An MRM LC–MS/MS method was developed for MPZ and metopimazine acid (MPZA) in rat, dog, and human plasma. The method was run in reverse phase in positive ion mode. […] D6‐isotopically labeled internal standards were used for each analyte. The following m/z transitions were monitored: metopimazine 446.3 → 141.1 and metopimazine acid 447.2 → 142.1. […] An MRM LC–MS/MS method was developed to look for metopimazine sulfoxide (MPZS) in human plasma. The method was run in reverse phase in positive ion mode. The system was identical to what was described above except that a slightly longer column was used, a Supelco Discovery HS F5 100 × 4.0 mm (3 µm) column (Sigma‐Aldrich). A D6‐isotopically labeled internal standards was used for MPS and the m/z transition monitored was 462.3 → 98.1. A calibration curve was generated for the quantification of MPZS in human plasma. Noncompartmental Pharmacokinetics analysis was performed in Phoenix 64 Winnonlin version 8.1.

CYP3A4 = target: T1, CYP3A4 (Homo sapiens, UniProt P08684); assay: Incubation of MPZ with recombinant CYP isoforms: CYP3A4; type: in vitro ADME; conditions: 1 µM MPZ, 60 min
T1 construct: purchased Corning Inc
T1 sequence (P08684 whole entry, canonical isoform): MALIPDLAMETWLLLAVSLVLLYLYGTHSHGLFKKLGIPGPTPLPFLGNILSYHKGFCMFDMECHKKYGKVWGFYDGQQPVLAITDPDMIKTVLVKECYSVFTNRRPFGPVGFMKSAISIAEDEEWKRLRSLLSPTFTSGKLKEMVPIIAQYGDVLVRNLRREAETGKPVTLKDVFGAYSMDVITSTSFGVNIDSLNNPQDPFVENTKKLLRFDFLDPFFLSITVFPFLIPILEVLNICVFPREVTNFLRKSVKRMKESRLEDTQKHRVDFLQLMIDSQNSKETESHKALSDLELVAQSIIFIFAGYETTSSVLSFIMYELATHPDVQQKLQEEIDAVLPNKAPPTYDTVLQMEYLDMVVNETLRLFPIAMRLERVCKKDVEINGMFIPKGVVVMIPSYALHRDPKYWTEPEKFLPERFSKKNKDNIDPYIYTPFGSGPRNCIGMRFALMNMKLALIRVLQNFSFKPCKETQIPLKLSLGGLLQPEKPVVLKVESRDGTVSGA
Excerpt: (§1) All other procedures were the same as described previously.

[3] = Incubation of MPZ with pooled human liver microsomes (disappearance, metabolite formation); type: in vitro ADME; conditions: metopimazine incubation in human liver microsomes, full scan LC–MS
Method: To conduct the metabolic incubation in liver microsomes in the linear range, protein concentration and the reaction time were optimized.
PAR was also used for all positive control compounds.
The degree of disappearance of each analyte was evaluated by comparing the PAR of analyte to IS or concentration in different sampling time points to the PAR of time zero, (t = 0, 100%). The percent of parent remaining values were calculated according to the following equation: %parentremaining=(meanconcentrationorPARateachsamplingtimepoint/meanconcentrationorPARoftimezero)×100

CYP3A5 = target: T2, CYP3A5 (Homo sapiens, UniProt P20815); assay: Incubation of MPZ with recombinant CYP isoforms: CYP3A5; type: in vitro ADME; conditions: 1 µM MPZ, 60 min
T2 construct: purchased Corning Inc
T2 sequence (P20815 whole entry, canonical isoform): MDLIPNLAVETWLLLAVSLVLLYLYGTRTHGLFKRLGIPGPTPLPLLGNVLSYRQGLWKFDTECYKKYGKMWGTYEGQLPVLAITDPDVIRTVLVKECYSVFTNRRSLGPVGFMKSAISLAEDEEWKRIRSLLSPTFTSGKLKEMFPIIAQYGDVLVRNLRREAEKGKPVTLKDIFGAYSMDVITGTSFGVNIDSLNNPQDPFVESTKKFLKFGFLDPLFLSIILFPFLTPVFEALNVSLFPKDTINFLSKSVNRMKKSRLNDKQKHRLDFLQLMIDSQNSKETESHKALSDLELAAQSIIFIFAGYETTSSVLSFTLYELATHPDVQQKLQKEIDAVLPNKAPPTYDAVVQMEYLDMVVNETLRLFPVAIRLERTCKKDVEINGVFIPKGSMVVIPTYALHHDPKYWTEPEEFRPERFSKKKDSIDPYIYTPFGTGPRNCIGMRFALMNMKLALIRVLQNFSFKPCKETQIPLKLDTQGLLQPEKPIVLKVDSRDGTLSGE
Excerpt: as §1

[4] = 4 subjects, single oral 60 mg MPZ dose
[5] = plasma, individual subjects, single oral 60 mg MPZ dose

effect of inhibitor on MPZA formation from MPZ (microsomal CYP enzymes; 1 mM ABT or CYP-isoform specific inhibitors): no effect on MPZA
effect of inhibitor on MPZS formation from MPZ (microsomal CYP enzymes): inhibited the formation of MPZS
effect of inhibitor on MPZH formation from MPZ (peak area ratio, qualitative) (microsomal CYP enzymes): inhibited
Compound: Nn1nnc2ccccc21 [1‐ABT, 1‐aminobenzotriazole]

effect of FMO inhibitor on MPZA formation in HLM (microsomal FMOs): not inhibited
Compound: Cn1cc[nH]c1=S [methimazole]

effect of inhibitor on MPZS formation from MPZ (microsomal CYP enzymes): clearly inhibited
Compound: CCC(C)n1ncn(-c2ccc(N3CCN(c4ccc(OCC5COC(Cn6cncn6)(c6ccc(Cl)cc6Cl)O5)cc4)CC3)cc2)c1=O (stereo not shown) [itraconazole]

Second part, the molecule before the results:

Compound: O=[N+]([O-])c1ccc(OP(=O)(O)Oc2ccc([N+](=O)[O-])cc2)cc1 [BNPP, bis‐p‐nitrophenyl phosphate]
inhibition of MPZA formation ([1]; 2 μM BNPP, even at the highest pH): at least 97%
inhibition of MPZA formation ([1]; 16 μM BNPP, all three pH values (7.4, 8.4, 9.4)): > 99%

Compound: CS(=O)(=O)c1ccc2c(c1)N(CCCN1CCC(C(N)=O)CC1)c1ccccc1[S+]2[O-] (stereo not shown) [MPZS, metopimazine sulfoxide]
quantifiability in plasma at late time points [2, 4]: not quantifiable by 12 h
time of first appearance in plasma [2, 4]: 30 to 45 min
% Drug‐related material MPZS ([2]; individual subjects, single 60 mg dose): 0.4% and 0.9% and 0.5% and 0.8%
% Drug‐related material MPZS ([2]; mean of 4 subjects, single 60 mg dose): 0.7%
AUC(0-t) ([2]; both sexes, human, plasma, po, 60 mg, plasma, mean of 4 subjects, single oral 60 mg MPZ dose, read-out: MPZS AUClast): 15.8 ng·h/mL
Cmax ([2]; both sexes, human, plasma, po, 60 mg, plasma, mean of 4 subjects, single oral 60 mg MPZ dose, read-out: MPZS C max): 4.9 ng/mL
MPZS AUClast [2, 5]: 7.6 ng‐h/ml and 25.5 ng‐h/ml and 10.0 ng‐h/ml and 20.1 ng‐h/ml
MPZS C max [2, 5]: 1.6 ng/mL and 10.2 ng/mL and 3.1 ng/mL and 4.6 ng/mL
MPZS T max [2, 5]: 4 h and 1.25 h and 1 h
percent of total circulating drug‐related material ([2]; rough estimate based on AUClast, single 60 mg dose): less than 1%
metabolite formation by recombinant CYP3A4 (CYP3A4): mainly produced by CYP3A4
Peak area at time 0 [3]: 0
Peak area at time 90 min [3]: 59
metabolite formation by recombinant CYP3A5 (CYP3A5): not CYP3A5

Compound: C=C[C@H]1C[N@@]2CC[C@H]1C[C@@H]2[C@@H](O)c1ccnc2ccc(OC)cc12 [quinidine]
effect of inhibitor on MPZH formation from MPZ (peak area ratio, qualitative) (microsomal CYP enzymes): inhibited
